Our source for the inhibition values is patent publication US20230346952A1, “CANNABINOID GLYCOSIDE PRODRUGS AND METHODS OF SYNTHESIS” (priority 2015, published 2023).

What all share (assay): biochemical
The target of experiment [1] is safety screen panel of human pharmacological targets (Homo sapiens, UniProt P23975). The settings on record: read-out: percent inhibition: norepinephrine transporter (h) (antagonist radioligand).
For experiment [2], the target named is safety screen panel of human pharmacological targets (Homo sapiens, UniProt P37288). The settings on record: read-out: percent inhibition: V1a (h) (agonist radioligand).
Experiment [3] deals with safety screen panel of human pharmacological targets (Homo sapiens, UniProt P43681). The conditions noted are these: read-out: percent inhibition: N neuronal alpha 4beta 2 h) (agonist radioligand).
Experiment [4] addresses T1, safety screen panel of human pharmacological targets (Homo sapiens, UniProt P35354).
T1 sequence (P35354 18-604): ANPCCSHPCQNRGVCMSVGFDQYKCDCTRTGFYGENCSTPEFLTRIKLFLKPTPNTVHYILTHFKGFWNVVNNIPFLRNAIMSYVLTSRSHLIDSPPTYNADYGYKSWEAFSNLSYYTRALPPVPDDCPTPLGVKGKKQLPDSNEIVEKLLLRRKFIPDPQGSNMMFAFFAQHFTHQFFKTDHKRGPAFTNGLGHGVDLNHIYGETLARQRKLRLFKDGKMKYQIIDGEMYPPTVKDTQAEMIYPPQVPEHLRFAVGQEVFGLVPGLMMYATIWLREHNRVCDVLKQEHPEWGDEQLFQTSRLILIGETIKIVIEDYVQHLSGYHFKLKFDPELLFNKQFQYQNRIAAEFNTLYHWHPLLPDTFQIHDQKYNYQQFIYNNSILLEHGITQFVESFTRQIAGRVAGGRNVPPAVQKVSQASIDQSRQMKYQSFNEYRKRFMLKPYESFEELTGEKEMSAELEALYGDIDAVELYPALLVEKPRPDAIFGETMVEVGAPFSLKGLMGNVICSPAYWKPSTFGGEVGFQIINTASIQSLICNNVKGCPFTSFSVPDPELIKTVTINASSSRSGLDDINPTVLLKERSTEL
The settings on record: read-out: percent inhibition: COX2(h}).

Experiment [5] addresses safety screen panel of human pharmacological targets (Homo sapiens, UniProt Q14432). The settings on record: read-out: percent inhibition: PDE3A (h).
Experiment [6] has as its target safety screen panel of human pharmacological targets (Homo sapiens, UniProt P20309). The conditions noted are these: read-out: percent inhibition: M3 (h) (antagonist radioligand).
Experiment [7] deals with safety screen panel of human pharmacological targets (Rattus norvegicus, UniProt P34975). The settings on record: read-out: percent inhibition: kappa (KOP) (agonist radioligand).
For experiment [8], the target named is safety screen panel of human pharmacological targets (Homo sapiens, UniProt P07550). The conditions noted are these: read-out: percent inhibition: beta 2 (h) (antagonist radioligand).
For experiment [9], the target named is T2, safety screen panel of human pharmacological targets (Rattus norvegicus, UniProt P21396).
T2 sequence (P21396 1-526): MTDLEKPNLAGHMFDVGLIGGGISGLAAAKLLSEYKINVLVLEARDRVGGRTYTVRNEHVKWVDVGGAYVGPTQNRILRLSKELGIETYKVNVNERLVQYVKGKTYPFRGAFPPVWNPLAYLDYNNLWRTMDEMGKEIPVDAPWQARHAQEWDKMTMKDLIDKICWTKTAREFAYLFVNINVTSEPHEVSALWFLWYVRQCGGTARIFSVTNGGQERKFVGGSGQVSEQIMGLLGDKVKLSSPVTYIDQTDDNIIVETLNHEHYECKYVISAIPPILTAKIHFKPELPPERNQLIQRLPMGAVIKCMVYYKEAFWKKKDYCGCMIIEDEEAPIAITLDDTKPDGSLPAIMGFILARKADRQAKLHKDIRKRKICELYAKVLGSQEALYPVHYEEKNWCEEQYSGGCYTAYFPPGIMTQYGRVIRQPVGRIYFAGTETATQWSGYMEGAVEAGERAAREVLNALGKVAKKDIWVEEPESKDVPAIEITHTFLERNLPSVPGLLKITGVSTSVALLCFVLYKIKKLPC
The conditions noted are these: read-out: percent inhibition: MAO-A (antagonist radioligand).

For experiment [10], the target named is safety screen panel of human pharmacological targets (Homo sapiens, UniProt P31645). The conditions noted are these: read-out: percent inhibition: 5-HT transporter (h) (antagonist radioligand).
Experiment [11] concerns the target T3, safety screen panel of human pharmacological targets (Homo sapiens, UniProt P08172).
T3 sequence (P08172 1-466): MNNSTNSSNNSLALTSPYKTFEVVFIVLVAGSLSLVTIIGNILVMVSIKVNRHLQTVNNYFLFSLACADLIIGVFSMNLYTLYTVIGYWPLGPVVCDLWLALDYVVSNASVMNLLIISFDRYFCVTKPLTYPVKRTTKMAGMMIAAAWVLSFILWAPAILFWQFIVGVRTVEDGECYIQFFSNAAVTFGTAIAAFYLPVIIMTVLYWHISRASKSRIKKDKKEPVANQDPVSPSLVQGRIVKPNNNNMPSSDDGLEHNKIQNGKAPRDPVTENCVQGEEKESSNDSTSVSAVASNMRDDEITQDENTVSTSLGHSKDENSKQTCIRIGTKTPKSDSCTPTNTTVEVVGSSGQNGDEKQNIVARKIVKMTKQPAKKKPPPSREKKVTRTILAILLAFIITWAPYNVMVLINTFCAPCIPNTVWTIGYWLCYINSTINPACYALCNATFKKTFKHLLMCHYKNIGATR
The conditions noted are these: read-out: percent inhibition: M2 (h) (antagonist radioligand).

In experiment [12] the target is safety screen panel of human pharmacological targets (Homo sapiens, UniProt P34972). The conditions noted are these: read-out: percent inhibition: CB2 (h) (agonist radioligand).
safety screen panel of human pharmacological targets (Homo sapiens, UniProt P34972), sequence (P34972 whole entry): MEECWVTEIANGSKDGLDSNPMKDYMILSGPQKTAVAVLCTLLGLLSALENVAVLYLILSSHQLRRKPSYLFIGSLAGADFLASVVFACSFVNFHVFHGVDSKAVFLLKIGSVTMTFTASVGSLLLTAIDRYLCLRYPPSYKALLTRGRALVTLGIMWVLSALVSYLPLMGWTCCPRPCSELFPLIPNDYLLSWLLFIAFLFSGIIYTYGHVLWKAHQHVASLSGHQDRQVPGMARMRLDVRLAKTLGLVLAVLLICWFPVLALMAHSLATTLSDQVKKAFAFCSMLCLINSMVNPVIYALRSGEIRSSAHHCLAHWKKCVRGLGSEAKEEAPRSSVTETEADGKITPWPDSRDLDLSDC

safety screen panel of human pharmacological targets (Homo sapiens, UniProt P43681), sequence (P43681 27-627): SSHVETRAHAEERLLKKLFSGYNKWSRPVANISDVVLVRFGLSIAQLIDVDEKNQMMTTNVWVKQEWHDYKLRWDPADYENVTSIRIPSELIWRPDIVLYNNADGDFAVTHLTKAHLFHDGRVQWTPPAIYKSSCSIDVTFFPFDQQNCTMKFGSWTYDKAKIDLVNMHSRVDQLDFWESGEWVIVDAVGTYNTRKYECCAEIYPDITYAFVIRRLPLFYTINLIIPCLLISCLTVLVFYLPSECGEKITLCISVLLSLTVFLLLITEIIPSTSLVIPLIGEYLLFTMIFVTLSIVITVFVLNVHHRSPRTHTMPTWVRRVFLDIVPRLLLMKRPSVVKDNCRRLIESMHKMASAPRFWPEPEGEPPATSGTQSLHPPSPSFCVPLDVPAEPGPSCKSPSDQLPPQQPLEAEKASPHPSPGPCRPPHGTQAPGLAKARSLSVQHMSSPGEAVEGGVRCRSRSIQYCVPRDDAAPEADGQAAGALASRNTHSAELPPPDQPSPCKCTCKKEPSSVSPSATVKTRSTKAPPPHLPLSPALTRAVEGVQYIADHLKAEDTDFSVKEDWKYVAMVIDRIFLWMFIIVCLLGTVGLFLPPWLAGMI
safety screen panel of human pharmacological targets (Rattus norvegicus, UniProt P34975), sequence (P34975 whole entry): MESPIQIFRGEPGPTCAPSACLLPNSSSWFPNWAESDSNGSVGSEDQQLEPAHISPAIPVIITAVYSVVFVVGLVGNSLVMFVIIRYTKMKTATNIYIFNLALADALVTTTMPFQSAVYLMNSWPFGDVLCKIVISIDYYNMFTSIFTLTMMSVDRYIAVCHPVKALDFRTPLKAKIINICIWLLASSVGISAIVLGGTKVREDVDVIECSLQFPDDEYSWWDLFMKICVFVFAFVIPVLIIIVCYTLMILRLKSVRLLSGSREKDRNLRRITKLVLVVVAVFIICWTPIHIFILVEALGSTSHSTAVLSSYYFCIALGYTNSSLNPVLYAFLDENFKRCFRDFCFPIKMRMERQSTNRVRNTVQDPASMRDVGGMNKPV
safety screen panel of human pharmacological targets (Homo sapiens, UniProt P31645), sequence (P31645 whole entry): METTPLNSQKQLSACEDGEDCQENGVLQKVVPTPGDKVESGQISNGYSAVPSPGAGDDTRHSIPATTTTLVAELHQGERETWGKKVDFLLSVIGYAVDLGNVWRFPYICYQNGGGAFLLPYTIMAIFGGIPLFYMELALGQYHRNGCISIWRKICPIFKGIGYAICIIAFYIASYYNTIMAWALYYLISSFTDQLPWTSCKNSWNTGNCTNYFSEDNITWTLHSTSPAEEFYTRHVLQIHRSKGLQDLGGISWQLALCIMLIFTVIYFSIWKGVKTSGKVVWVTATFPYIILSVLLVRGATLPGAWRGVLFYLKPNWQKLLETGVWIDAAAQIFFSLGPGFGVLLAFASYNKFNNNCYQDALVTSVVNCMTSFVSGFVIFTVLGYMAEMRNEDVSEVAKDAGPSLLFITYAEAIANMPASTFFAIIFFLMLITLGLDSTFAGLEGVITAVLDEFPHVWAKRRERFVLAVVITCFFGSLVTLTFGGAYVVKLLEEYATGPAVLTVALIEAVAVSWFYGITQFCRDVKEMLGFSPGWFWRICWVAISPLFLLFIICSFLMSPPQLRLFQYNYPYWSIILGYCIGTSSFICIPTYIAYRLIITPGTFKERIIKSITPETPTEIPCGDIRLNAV
safety screen panel of human pharmacological targets (Homo sapiens, UniProt P37288), sequence (P37288 whole entry): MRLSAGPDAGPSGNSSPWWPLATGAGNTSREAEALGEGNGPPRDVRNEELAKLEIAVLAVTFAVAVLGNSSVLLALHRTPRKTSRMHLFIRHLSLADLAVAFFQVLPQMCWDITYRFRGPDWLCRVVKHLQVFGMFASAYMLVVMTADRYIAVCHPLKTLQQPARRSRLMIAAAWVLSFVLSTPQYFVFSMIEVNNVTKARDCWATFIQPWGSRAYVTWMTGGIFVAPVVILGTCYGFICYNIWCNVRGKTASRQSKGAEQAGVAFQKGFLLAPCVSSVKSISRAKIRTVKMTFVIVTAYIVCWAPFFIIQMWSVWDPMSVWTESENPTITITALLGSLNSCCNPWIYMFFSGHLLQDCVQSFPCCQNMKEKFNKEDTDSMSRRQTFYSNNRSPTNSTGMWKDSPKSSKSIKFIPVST
safety screen panel of human pharmacological targets (Homo sapiens, UniProt P23975), sequence (P23975 whole entry): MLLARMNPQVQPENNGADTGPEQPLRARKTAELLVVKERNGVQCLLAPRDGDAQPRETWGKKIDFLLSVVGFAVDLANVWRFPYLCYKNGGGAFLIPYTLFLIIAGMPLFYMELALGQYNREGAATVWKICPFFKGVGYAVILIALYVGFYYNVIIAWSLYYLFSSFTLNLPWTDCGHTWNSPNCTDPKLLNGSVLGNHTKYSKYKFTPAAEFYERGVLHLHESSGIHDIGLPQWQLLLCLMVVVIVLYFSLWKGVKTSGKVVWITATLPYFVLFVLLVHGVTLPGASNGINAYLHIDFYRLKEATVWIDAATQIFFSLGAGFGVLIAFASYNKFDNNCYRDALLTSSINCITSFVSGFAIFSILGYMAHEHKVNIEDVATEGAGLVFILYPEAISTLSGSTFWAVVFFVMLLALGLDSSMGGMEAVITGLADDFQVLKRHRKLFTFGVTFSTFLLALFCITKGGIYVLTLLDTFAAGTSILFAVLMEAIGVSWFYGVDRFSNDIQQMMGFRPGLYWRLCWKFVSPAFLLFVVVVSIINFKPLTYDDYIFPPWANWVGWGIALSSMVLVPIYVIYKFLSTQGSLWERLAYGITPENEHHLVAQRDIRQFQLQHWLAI
safety screen panel of human pharmacological targets (Homo sapiens, UniProt P07550), sequence (P07550 whole entry): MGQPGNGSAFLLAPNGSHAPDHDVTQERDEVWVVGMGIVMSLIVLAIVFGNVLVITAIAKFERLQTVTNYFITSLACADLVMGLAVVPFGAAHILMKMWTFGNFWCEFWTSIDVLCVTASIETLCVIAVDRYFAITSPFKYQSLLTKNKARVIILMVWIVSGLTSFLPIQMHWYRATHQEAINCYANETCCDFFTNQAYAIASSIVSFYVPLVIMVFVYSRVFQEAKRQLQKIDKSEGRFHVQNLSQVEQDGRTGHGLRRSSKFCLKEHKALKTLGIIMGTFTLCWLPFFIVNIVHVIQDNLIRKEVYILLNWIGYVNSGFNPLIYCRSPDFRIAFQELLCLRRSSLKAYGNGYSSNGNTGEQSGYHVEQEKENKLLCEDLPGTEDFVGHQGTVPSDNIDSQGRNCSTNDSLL
safety screen panel of human pharmacological targets (Homo sapiens, UniProt Q14432), sequence (Q14432 whole entry): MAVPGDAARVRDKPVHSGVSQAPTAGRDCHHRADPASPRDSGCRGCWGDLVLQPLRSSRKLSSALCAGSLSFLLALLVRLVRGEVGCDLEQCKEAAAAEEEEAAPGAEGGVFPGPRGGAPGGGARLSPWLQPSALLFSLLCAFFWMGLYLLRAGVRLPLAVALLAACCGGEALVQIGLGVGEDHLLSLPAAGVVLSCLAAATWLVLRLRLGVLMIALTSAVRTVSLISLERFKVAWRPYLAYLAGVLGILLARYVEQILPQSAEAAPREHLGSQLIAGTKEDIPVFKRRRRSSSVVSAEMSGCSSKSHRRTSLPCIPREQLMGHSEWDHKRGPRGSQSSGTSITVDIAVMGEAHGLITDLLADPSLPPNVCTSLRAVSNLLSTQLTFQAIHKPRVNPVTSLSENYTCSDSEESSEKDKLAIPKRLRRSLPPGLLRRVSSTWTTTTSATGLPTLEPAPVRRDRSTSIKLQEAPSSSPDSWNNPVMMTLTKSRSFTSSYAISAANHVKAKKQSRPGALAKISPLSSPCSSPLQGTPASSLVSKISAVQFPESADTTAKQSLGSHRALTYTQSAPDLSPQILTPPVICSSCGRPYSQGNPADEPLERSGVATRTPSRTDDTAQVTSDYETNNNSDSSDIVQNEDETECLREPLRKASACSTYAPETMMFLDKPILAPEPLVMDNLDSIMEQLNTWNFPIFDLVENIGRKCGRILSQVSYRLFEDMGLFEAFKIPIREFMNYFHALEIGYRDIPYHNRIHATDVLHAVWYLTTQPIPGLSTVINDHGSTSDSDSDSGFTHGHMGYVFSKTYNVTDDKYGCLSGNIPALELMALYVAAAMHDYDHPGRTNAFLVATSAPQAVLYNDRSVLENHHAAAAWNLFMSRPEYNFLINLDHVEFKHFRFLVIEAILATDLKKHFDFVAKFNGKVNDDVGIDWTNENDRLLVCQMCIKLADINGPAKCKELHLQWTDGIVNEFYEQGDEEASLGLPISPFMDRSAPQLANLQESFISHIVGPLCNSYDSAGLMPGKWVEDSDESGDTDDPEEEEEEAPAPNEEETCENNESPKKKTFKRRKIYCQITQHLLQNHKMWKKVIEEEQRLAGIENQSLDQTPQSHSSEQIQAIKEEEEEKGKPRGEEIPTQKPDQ

Take `CCCCCc1cc(O)c2c(c1)OC(C)(C)[C@@H]1CCC(C)=C[C@@H]21` [VB301, Δ9-Terahydrocannabinol, reference compound]: the inhibition at 10 µM in experiment [1] is 90%; in experiment [2], -2%; in experiment [3], 1%; in experiment [4] it was -6%; in experiment [5], -4%; in [6] it was 23%. Further, the inhibition at 10 µM was 92% in [7]; -12% in experiment [8]; 1% in [9]; 91% in experiment [10]; 21% in [11]; 97% in experiment [12].
With `CCCCCc1cc(O[C@@H]2O[C@H](CO)[C@@H](O)[C@H](O)[C@H]2O)c2c(c1)OC(C)(C)[C@@H]1CCC(C)=C[C@@H]21` [VB302, Δ9THC-1-O-glucopyranoside], the inhibition at 10 µM in experiment [1] was 16%; in experiment [2], 8%; in [3] it was 7%; in experiment [4], -20%; in experiment [5] it was -44%; in experiment [6] it was 11%. Also, the inhibition at 10 µM in experiment [7] is 20%; in experiment [8] it was 2%; in [9] it was 5%; in [10] it was -1%; in [11], 2%; in experiment [12] it was 22%.
In the case of `CCCCCc1cc(O[C@@H]2O[C@H](CO[C@@H]3O[C@H](CO)[C@@H](O)[C@H](O)[C@H]3O)[C@@H](O[C@@H]3O[C@H](CO)[C@@H](O)[C@H](O)[C@H]3O)[C@H](O)[C@H]2O)c2c(c1)OC(C)(C)[C@@H]1CCC(C)=C[C@@H]21` [VB311], the inhibition at 10 µM in experiment [1] was 20%; in experiment [2], 7%; in experiment [3], -1%; in experiment [4], 8%; in experiment [5], -6%; in experiment [6], -5%. The inhibition at 10 µM in experiment [7] is 4%; in experiment [8], -1%; in [9] it was 2%; in [10] it was 3%; in experiment [11], -4%; in experiment [12], 17%.

A word on the inhibition: it is the drop in the measured response relative to a control, in per cent.
